The record followed here is patent US12552775B2, “Compounds and uses thereof” (Foghorn Therapeutics Inc., priority 2020, dated 2026).

One assay has as its target T1, HiBit-BRM fusion protein (Homo sapiens, UniProt P51531).
T1 construct: expressed in transfected cells
The assay can be described thus: HiBiT-BRM cell-based degradation assay (Nano-Glo HiBiT Lytic Detection, 24 h). Particulars: stable HeLa cell line expressing HiBiT-BRM, top dose 30 μM. A digest of the protocol:
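HeLa stably expressing HiBiT-BRM; 24 h compound exposure, 10-pt 3-fold dilution from 30 μM final, duplicates. Lytic LgBiT complementation, luminescence. % degradation vs DMSO (HC) and 2 μM known BRM/BRG1 degrader (LC).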

For assay [1], the target named is T2, HiBit-BRG1 fusion protein (Homo sapiens, UniProt P51532).
T2 construct: expressed in transfected cells
T2 sequence (P51532 whole entry, the tested form may be a part): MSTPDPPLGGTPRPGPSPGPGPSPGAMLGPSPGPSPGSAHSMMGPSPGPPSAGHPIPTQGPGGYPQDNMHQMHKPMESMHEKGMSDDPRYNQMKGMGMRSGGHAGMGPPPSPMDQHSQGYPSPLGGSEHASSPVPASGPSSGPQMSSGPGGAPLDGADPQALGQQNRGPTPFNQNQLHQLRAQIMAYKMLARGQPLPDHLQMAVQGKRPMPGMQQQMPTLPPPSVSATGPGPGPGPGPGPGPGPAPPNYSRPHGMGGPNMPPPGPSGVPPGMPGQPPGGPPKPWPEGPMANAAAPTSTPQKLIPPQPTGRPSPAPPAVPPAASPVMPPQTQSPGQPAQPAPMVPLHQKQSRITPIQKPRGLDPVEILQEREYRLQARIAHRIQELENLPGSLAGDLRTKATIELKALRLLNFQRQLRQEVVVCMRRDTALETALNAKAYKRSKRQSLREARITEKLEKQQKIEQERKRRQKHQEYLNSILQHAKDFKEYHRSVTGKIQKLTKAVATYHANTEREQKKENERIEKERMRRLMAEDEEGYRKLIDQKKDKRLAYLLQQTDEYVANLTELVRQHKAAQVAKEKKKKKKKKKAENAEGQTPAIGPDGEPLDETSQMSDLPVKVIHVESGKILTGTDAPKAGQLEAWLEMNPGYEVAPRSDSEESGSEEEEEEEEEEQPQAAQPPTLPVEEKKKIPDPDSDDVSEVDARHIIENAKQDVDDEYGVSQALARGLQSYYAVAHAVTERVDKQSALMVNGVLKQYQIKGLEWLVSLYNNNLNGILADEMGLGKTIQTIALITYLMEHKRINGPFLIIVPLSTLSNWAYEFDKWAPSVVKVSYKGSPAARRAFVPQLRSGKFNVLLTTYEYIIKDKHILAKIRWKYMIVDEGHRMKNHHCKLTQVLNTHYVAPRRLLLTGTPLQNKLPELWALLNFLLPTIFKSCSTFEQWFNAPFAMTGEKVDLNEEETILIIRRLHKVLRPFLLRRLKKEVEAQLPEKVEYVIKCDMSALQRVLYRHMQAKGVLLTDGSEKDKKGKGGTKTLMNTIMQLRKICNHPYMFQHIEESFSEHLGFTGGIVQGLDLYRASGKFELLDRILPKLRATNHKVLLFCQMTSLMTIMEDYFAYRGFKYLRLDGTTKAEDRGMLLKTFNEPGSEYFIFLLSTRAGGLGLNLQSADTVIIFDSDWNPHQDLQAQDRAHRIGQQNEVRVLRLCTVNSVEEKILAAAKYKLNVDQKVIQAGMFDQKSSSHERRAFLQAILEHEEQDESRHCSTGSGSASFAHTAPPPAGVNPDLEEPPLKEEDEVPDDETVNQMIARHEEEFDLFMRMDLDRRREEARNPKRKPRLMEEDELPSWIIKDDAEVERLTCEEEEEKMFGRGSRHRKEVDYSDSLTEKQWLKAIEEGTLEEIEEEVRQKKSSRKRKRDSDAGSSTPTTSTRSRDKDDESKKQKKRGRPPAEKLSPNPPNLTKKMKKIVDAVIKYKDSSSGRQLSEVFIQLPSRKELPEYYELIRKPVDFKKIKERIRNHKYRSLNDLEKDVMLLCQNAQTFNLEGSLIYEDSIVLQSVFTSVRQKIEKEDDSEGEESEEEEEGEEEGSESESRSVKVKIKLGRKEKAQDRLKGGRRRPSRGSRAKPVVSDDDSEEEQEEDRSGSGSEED
In words: HiBiT-BRG1 cell-based degradation assay (Nano-Glo HiBiT Lytic Detection, 24 h). Particulars: stable HeLa cell line expressing HiBit-BRG1 and LgBit, top dose 30 μM, read-out: BRG1 HiBit Degradation Maximum (%). A digest of the protocol: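 HeLa cells stably expressing HiBiT-BRG1 plus LgBiT were treated with 10-point 3-fold compound dilutions (top 30 μM final) for 24 h. Lytic Nano-Glo HiBiT luminescence was read. % degradation was normalised between DMSO (high control) and 2 μM of a reference BRM/BRG1 degrader (low control).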

T1 sequence (P51531 whole entry, the tested form may be a part): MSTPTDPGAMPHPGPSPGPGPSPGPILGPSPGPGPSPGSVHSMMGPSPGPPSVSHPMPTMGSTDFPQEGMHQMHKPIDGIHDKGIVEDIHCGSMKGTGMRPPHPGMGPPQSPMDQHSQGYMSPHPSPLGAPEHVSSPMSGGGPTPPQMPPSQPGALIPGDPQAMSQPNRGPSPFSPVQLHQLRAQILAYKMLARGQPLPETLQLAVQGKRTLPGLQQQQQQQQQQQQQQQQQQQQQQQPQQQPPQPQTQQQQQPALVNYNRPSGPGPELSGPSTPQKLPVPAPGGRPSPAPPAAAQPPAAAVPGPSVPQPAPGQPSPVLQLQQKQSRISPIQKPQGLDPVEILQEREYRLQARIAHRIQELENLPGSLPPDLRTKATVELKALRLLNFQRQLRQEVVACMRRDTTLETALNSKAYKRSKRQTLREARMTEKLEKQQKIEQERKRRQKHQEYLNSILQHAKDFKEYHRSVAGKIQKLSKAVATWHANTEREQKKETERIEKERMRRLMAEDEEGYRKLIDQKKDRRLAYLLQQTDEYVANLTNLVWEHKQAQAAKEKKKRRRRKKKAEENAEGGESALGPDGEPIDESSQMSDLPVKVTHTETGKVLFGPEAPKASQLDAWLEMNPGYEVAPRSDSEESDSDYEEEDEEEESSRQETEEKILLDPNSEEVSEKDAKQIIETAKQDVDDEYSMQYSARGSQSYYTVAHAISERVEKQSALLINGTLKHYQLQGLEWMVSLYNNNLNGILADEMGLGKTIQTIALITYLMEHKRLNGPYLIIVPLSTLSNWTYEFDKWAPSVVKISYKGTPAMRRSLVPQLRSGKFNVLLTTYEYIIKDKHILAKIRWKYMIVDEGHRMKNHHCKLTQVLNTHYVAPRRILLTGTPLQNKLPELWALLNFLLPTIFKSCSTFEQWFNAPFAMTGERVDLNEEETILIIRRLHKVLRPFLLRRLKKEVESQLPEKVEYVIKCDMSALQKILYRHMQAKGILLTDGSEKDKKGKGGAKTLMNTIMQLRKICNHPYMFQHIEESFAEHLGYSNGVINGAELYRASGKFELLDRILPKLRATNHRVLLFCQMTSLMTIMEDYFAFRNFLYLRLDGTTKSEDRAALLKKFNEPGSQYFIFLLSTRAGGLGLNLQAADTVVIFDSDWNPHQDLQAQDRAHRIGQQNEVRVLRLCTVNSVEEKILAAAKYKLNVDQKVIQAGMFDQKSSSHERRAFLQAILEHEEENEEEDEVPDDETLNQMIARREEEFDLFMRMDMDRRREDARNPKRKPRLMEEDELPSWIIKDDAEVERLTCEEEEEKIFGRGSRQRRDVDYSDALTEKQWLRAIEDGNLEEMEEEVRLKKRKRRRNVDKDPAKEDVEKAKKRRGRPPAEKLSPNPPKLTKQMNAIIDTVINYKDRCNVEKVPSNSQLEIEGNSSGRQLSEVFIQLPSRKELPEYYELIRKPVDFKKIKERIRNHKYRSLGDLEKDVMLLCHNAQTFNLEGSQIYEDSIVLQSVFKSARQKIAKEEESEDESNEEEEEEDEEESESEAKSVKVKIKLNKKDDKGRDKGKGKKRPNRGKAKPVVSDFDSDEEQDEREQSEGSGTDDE

Turning to `Cc1nc2cccc(NCCCCCCNC(=O)C34CC(COc5cc(-c6ccccc6O)nnc5N)(C3)C4)c2c(=O)n1C1CCC(=O)NC1=O` (centres unmarked) [Compound 67, 3-(((3-amino-6-(2-hydroxyphenyl)pyridazin-4-yl)oxy)methyl)-N-(6-((3-(2,6-dioxopiperidin-3-yl)-2-methyl-4-oxo-3,4-dihydroquinazolin-5-yl)amino)hexyl)bicyclo[1.1.1]pentane-1-carboxamide], the “BRM HiBit Degradation Maximum (%)” value at HiBit-BRM fusion protein is on record as “C (“C” indicates maximum degradation < 50%)”. Also, in assay [1], the Dmax is < 50%.

Take `Nc1nnc(-c2ccccc2O)cc1OCCC12CC(NC(=O)CCOCCOCCNc3ccc4c(c3)C(=O)N(C3CCC(=O)NC3=O)C4=O)(C1)C2` (centres unmarked) [Compound 22, N-[3-(2-[[3-amino-6-(2-hydroxyphenyl)pyridazin-4-yl]oxy]ethyl)bicyclo[1.1.1]pentan-1-yl]-3-[2-(2-[[2-(2,6-dioxopiperidin-3-yl)-1,3-dioxoisoindol-5-yl]amino]ethoxy)ethoxy]propanamide]: the “BRM HiBit Degradation Maximum (%)” value at HiBit-BRM fusion protein is recorded as “C (“C” indicates maximum degradation < 50%)”. Besides, the Dmax in assay [1] is < 50%.

In the case of `Nc1nnc(-c2ccccc2O)cc1OCC12CC(C(=O)N3CCN(c4ccc5c(c4)C(=O)N(C4CCC(=O)NC4=O)C5=O)CC3)(C1)C2` (centres unmarked) [Compound 54, 5-(4-(3-(((3-amino-6-(2-hydroxyphenyl)pyridazin-4-yl)oxy)methyl)bicyclo[1.1.1]pentane-1-carbonyl)piperazin-1-yl)-2-(2,6-dioxopiperidin-3-yl)isoindoline-1,3-dione], on HiBit-BRM fusion protein, the “BRM HiBit Degradation Maximum (%)” value was “C (“C” indicates maximum degradation < 50%)”. Moreover, in assay [1], the Dmax is < 50%.

Regarding `Cc1ncsc1-c1ccc(CNC(=O)[C@@H]2C[C@@H](O)CN2C(=O)[C@@H](NC(=O)CCCCCCCCCCCCC(=O)NCC23CC(COc4cc(-c5ccccc5O)nnc4N)(C2)C3)C(C)(C)C)cc1` [Compound 40, N1-((3-(((3-amino-6-(2-hydroxyphenyl)pyridazin-4-yl)oxy)methyl)bicyclo[1.1.1]pentan-1-yl)methyl)-N14-((S)-1-((2S,4R)-4-hydroxy-2-((4-(4-methylthiazol-5-yl)benzyl)carbamoyl)pyrrolidin-1-yl)-3,3-dimethyl-1-oxobutan-2-yl)tetradecanediamide], the “BRM HiBit Degradation Maximum (%)” value at HiBit-BRM fusion protein was “B (“B” indicates maximum degradation ≥ 50%)”. In assay [1], the Dmax is < 50%.

Regarding `Nc1nnc(-c2ccccc2O)cc1OCCC12CC(NC(=O)CCOCCOCCOc3cccc4c3C(=O)N(C3CCC(=O)NC3=O)C4=O)(C1)C2` (centres unmarked) [Compound 30, N-(3-(2-((3-amino-6-(2-hydroxyphenyl)pyridazin-4-yl)oxy)ethyl)bicyclo[1.1.1]pentan-1-yl)-3-(2-(2-((2-(2,6-dioxopiperidin-3-yl)-1,3-dioxoisoindolin-4-yl)oxy)ethoxy)ethoxy)propanamide], at HiBit-BRM fusion protein, the “BRM HiBit Degradation Maximum (%)” value is “C (“C” indicates maximum degradation < 50%)”. The Dmax in assay [1] was < 50%.

`Cc1ncsc1-c1ccc(CNC(=O)[C@@H]2C[C@@H](O)CN2C(=O)[C@@H](NC(=O)CCCC(=O)NCC23CC(COc4cc(-c5ccccc5O)nnc4N)(C2)C3)C(C)(C)C)cc1` [Compound 37, N1-((3-(((3-amino-6-(2-hydroxyphenyl)pyridazin-4-yl)oxy)methyl)bicyclo[1.1.1]pentan-1-yl)methyl)-N5-((S)-1-((2S,4R)-4-hydroxy-2-((4-(4-methylthiazol-5-yl)benzyl)carbamoyl)pyrrolidin-1-yl)-3,3-dimethyl-1-oxobutan-2-yl)glutaramide]: the “BRM HiBit Degradation Maximum (%)” value at HiBit-BRM fusion protein is reported as “C (“C” indicates maximum degradation < 50%)”. Moreover, in assay [1], the Dmax is < 50%.

Regarding `Nc1nnc(-c2ccccc2O)cc1OCCC12CC(NC(=O)CCCCCCCCNc3cccc4c3C(=O)N(C3CCC(=O)NC3=O)C4=O)(C1)C2` (centres unmarked) [Compound 23, N-[3-(2-[[3-amino-6-(2-hydroxyphenyl)pyridazin-4-yl]oxy]ethyl)bicyclo[1.1.1]pentan-1-yl]-9-[[2-(2,6-dioxopiperidin-3-yl)-1,3-dioxoisoindol-4-yl]amino]nonanamide], the “BRM HiBit Degradation Maximum (%)” value on HiBit-BRM fusion protein is on record as “C (“C” indicates maximum degradation < 50%)”. Further, the Dmax in assay [1] was < 50%.

Consider `Nc1nnc(-c2ccccc2O)cc1OCC12CC(C(=O)N3CC(CN4CCN(c5ccc6c(c5)C(=O)N(C5CCC(=O)NC5=O)C6=O)CC4)C3)(C1)C2` (centres unmarked) [Compound 100, 5-(4-((1-(3-(((3-amino-6-(2-hydroxyphenyl)pyridazin-4-yl)oxy)methyl)bicyclo[1.1.1]pentane-1-carbonyl)azetidin-3-yl)methyl)piperazin-1-yl)-2-(2,6-dioxopiperidin-3-yl)isoindoline-1,3-dione; formic acid], for which the “BRM HiBit Degradation Maximum (%)” value at HiBit-BRM fusion protein is recorded as “C (“C” indicates maximum degradation < 50%)”. In addition, the Dmax in assay [1] is < 50%.

Regarding `Nc1nnc(-c2ccccc2O)cc1OCC12CC(CNC(=O)CCCCCCOc3cccc4c3C(=O)N(C3CCC(=O)NC3=O)C4=O)(C1)C2` (centres unmarked) [Compound 4, N-[[3-([[3-amino-6-(2-hydroxyphenyl)pyridazin-4-yl]oxy]methyl)bicyclo[1.1.1]pentan-1-yl]methyl]-7-[[2-(2,6-dioxopiperidin-3-yl)-1,3-dioxoisoindol-4-yl]oxy]heptanamide], at HiBit-BRM fusion protein, the “BRM HiBit Degradation Maximum (%)” value is given as “C (“C” indicates maximum degradation < 50%)”. The Dmax in assay [1] was < 50%.

On to `Nc1nnc(-c2ccccc2O)cc1OCCC12CC(NC(=O)CCCCCCCCCCNc3cccc4c3C(=O)N(C3CCC(=O)NC3=O)C4=O)(C1)C2` (centres unmarked) [Compound 24, N-[3-(2-[[3-amino-6-(2-hydroxyphenyl)pyridazin-4-yl]oxy]ethyl)bicyclo[1.1.1]pentan-1-yl]-11-[[2-(2,6-dioxopiperidin-3-yl)-1,3-dioxoisoindol-4-yl]amino]undecanamide], for which the “BRM HiBit Degradation Maximum (%)” value at HiBit-BRM fusion protein is “C (“C” indicates maximum degradation < 50%)”. Moreover, the Dmax in assay [1] is < 50%.

Take `Nc1nnc(-c2ccccc2O)cc1OCC12CC(CNC(=O)CCCOc3cccc4c3C(=O)N(C3CCC(=O)NC3=O)C4=O)(C1)C2` (centres unmarked) [Compound 2, N-[[3-([[3-amino-6-(2-hydroxyphenyl)pyridazin-4-yl]oxy]methyl)bicyclo[1.1.1]pentan-1-yl]methyl]-4-[[2-(2,6-dioxopiperidin-3-yl)-1,3-dioxoisoindol-4-yl]oxy]butanamide]: the “BRM HiBit Degradation Maximum (%)” value on HiBit-BRM fusion protein is “C (“C” indicates maximum degradation < 50%)”. Further, in assay [1], the Dmax was < 50%.

Consider `Nc1nnc(-c2ccccc2O)cc1OCC12CC(C(=O)NCCOc3cccc(OCCNc4cccc5c4C(=O)N(C4CCC(=O)NC4=O)C5=O)c3)(C1)C2` (centres unmarked) [Compound 83, 3-(((3-amino-6-(2-hydroxyphenyl)pyridazin-4-yl)oxy)methyl)-N-(2-(3-(2-((2-(2,6-dioxopiperidin-3-yl)-1,3-dioxoisoindolin-4-yl)amino)ethoxy)phenoxy)ethyl)bicyclo[1.1.1]pentane-1-carboxamide], for which the “BRM HiBit Degradation Maximum (%)” value on HiBit-BRM fusion protein is reported as “C (“C” indicates maximum degradation < 50%)”. Further, the Dmax in assay [1] is < 50%.

Consider `Nc1nnc(-c2ccccc2O)cc1OCC12CC(C(=O)NCCCC#Cc3cccc4c3C(=O)N(C3CCC(=O)NC3=O)C4=O)(C1)C2` (centres unmarked) [Compound 88, 3-(((3-amino-6-(2-hydroxyphenyl)pyridazin-4-yl)oxy)methyl)-N-(5-(2-(2,6-dioxopiperidin-3-yl)-1,3-dioxoisoindolin-4-yl)pent-4-yn-1-yl)bicyclo[1.1.1]pentane-1-carboxamide], for which the “BRM HiBit Degradation Maximum (%)” value at HiBit-BRM fusion protein is “C (“C” indicates maximum degradation < 50%)”. In addition, the Dmax in assay [1] is < 50%.
